# Results published in patent publication US20240279615A1, “COMPOSITIONS COMPRISING DIPEPTIDES AND TRACE ELEMENTS” (Evonik Operations GmbH, priority 2021, published 2024).
# Entries after “also recorded” stand apart in the source; their conditions may differ. Where a SMILES comes first, the peptide text is derived from it. Bridges are numbered along the chain shown (N, C = ends). Roman numbers before positions name the chains, in order.
# Key:
# Agarabi CHO cells = assay: In vitro cytotoxicity assay (CellTiter-Glo ATP viability) on Agarabi CHO cells; format: cell-based; settings: for positive effect on viability of dipeptide combined with Cu(II): Agarabi CHO cells, 96 h, selected combinations of dipeptide and Cu(II)
# Protocol: (§1) Human mesenchymal stem cells (MSCs) were cultivated in MesenCult™-ACF Plus Culture Kit (Stemcell Technologies). The medium was prepared according to the manufacturer's instructions with addition of […] gentamicin and 2 mM I-glutamine. Agarabi CHO cells were cultivated in ActiPro medium supplemented with 6 mM I-glutamine. “Complete growth medium” references the medium with added supplements used for the cultivation of the corresponding cell type.
# (§2) Stock solutions of Cu(II), I-cysteine, N, N′-di-I-alanyl-I-cysteine ((Ala-Cys)2) and N, N′-di-I-lysyl-I-cysteine ((Lys-Cys)2) were brought into solution in the corresponding complete growth medium immediately prior to their use. For the assay performed with combinations of Cu(II) and I-cysteine, (Ala-Cys)2 or (Lys-Cys)2 on MSCs, the dissolved single compounds were mixed together at 2× treatment concentration. On MSCs, I-cysteine and the dipeptides were tested at 0.5 mM, 1 mM and 5 mM; Cu(II) was tested at 0.2 μM, 1 μM and 5 μM. For the treatment of Agarabi CHO cells, serial dilutions of I-cysteine, (Ala-Cys)2 and (Lys-Cys)2 stock solutions in complete growth medium were performed with 2× treatment concentration at each dilution step. On Agarabi CHO cells, I-cysteine and the dipeptides were tested at 2.5 mM, 5 mM and 10 mM; Cu(II) was tested at 2.5 μM, 10 μM and 40 μM.
# (§3) The cytotoxicity of the test compounds and their combinations was assayed on MSCs and Agarabi CHO cells cultivated in white 96-well cell culture plates at 5.000 cells/well. MSCs (50 μL/well) were cultivated for 24 h in a CO2-incubator (37° C., 5% CO2, 95% humidity) to ensure cell adhesion. This was followed by the addition of the prepared 2× concentrated test compounds and mixtures (50 μL/well). […]
# (§4) After incubation, the viability of the treated cells was determined based on adenosine triphosphate (ATP) quantification using the CellTiter-Glo® Luminescent Cell Viability Assay (Promega) according to the manufacturer's instructions.
# (§5) To calculate the cell viability, resulting luminescence values were averaged and normalized to the signal emitted by the untreated cells.
# [1] = test system: Human mesenchymal stem cells (MSCs); assay: In vitro cytotoxicity assay (CellTiter-Glo ATP viability) on MSCs; format: cell-based; settings: for positive effect on viability of dipeptide combined with Cu(II): 24 h, selected combinations of dipeptide and Cu(II)
# Protocol: as §1, §2, §3, §4, §5
structure (smiles),measurement,setting,value
"C[C@H](N)C(=O)N[C@@H](CSSC[C@H](NC(=O)[C@H](C)N)C(=O)O)C(=O)O [(Ala-Cys)2, N,N′-di-L-alanyl-L-cystine] (I: H-Ala-Cys-OH / II: H-Ala-Cys-OH; disulfide I:2-II:2)",positive effect on viability of dipeptide combined with Cu(II),Agarabi CHO cells,pronounced positive effect on viability; also recorded: viability was even increased
same,positive effect on viability of dipeptide combined with Cu(II),[1],pronounced positive effect on viability; also recorded: viability was even increased
"NCCCC[C@H](N)C(=O)N[C@@H](CSSC[C@H](NC(=O)[C@@H](N)CCCCN)C(=O)O)C(=O)O [(Lys-Cys)2, N,N′-di-L-lysyl-L-cystine] (I: H-Lys-Cys-OH / II: H-Lys-Cys-OH; disulfide I:2-II:2)",positive effect on viability of dipeptide combined with Cu(II),Agarabi CHO cells,pronounced positive effect on viability; also recorded: viability was even increased
same,positive effect on viability of dipeptide combined with Cu(II),[1],pronounced positive effect on viability; also recorded: viability was even increased
"O.O.O.O.O.O=S(=O)([O-])[O-].[Cu+2] [Cu(II), Copper (II) sulfate pentahydrate, reference compound]",effect of single component on cell viability,"Agarabi CHO cells; CHO cells, single component control, Cu(II) up to 40 μM",did not have a negative effect on viability
same,effect of single component on cell viability,"[1]; single component controls, L-cysteine and dipeptides up to 5 mM, Cu(II) up to 5 μM",did not have a negative effect on viability
